Source: patent US6803374B2, “Compounds useful for treating hepatitis C virus” (priority 2001, dated 2004)

Target: T1, HCV NS5B RdRp genotype 1b (Hepatitis C virus genotype 1b, UniProt Q9WMX2)
T1 construct: The protein was expressed with an 18 amino acid C-terminal truncation to enhance the solubility; made in house; host or cells: E. coli BL21(DE3)
Assay: HCV NS5B RdRp enzyme assay
Assay type: biochemical
Details: IC50, HCV RdRp genotype 1b enzyme, C-terminal 18 aa truncated; average of single point IC50 values
Protocol: HCV NS5B RdRp cloning, expression and purification. The cDNA encoding the NS5B protein of HCV, genotype 1b, was cloned into the pET21a expression vector. The protein was expressed with an 18 amino acid C-terminal truncation to enhance the solubility. The E. coli competent cell line BL21(DE3) was used for expression of the protein. Cultures were grown at 37° C. for ˜4 hours until the cultures reached an optical density of 2.0 at 600 nm. The cultures were cooled to 20° C. and induced with 1 mM IPTG. Fresh ampicillin was added to a final concentration of 50 ug/ml and the cells were grown overnight at 20° C.
Cell pellets (3L) were lysed for purification to yield 15-24 mgs of purified NS5B. The lysis buffer consisted of 20 mM Tris-HCl, pH 7.4, 500 mM NaCl, 0.5% triton X-100, 1 mM DTT, 1 mM EDTA, 20% glycerol, 0.5 mg/ml lysozyme, 10 mM MgCl2, 15 ug/ml deoxyribonuclease I, and Complete TM protease inhibitor tablets (Roche). After addition of the lysis buffer, frozen cell pellets were resuspended using a tissue homogenizer. To reduce the viscosity of the sample, aliquots of the lysate were sonicated on ice using a microtip attached to a Branson sonicator. The sonicated lysate was centrifuged at 100,000×g for 1 hr at 4° C. and filtered through a 0.2 μm filter unit (Corning).
The protein was purified using three sequential chromatography steps: Heparin sepharose CL-6B, polyU sepharose 4B, and Hitrap SP sepharose (Pharmacia). The chromatography buffers were identical to the lysis buffer but contained no lysozyme, deoxyribonuclease I, MgCl2 or protease inhibitor and the NaCl concentration of the buffer was adjusted according to the requirements for charging the protein onto the column. Each column was eluted with a NaCl gradient which varied in length from 5-50 column volumes depending on the column type. After the final chromatography step, the resulting purity of the enzyme is >90% based on SDS-PAGE analysis. The enzyme was aliquoted and stored at −80° C.
HCV NS5B RdRp enzyme assay. HCV RdRp genotype 1b assays were run in assay buffer composed of 20 mM Tris-HCl, pH 7.5, 2.5 mM KCl, 5 mM MgCl2, 1 mM DTT, 1.6 U RNAse inhibitor (Promega N2515), in 96 well plates (Falcon 3918). All compounds were serially diluted in DMSO and diluted further in assay buffer such that the final concentration of DMSO in the assay was 2%. Compounds were serially diluted (3-fold each time) for a 7 point inhibition analysis. HCV RdRp genotype 1b enzyme was used at a final concentration of 28 nM. A polyA template was used at 28 nM, and the oligo-dT12-18 primer was used at 840 nM final concentration. Preannealed primer and template were obtained commercially (Amersham 27-787802). ^3H-UTP was used at 0.125 μCi (1 μM total UTP). Reaction was initiated by the addition of enzyme. Reactions were incubated at 30° C. for 45 min, and stopped by adding 30 ul of 20% ice cold TCA. Plates were chilled for 30 minutes and harvested onto Unifilter-96, GF/B plates (Packard, 6005177) using a Packard FilterMate Cell Harvester. The harvest plates were prewashed 3 times, 200 ul/well, with 100 mM NaPPi. Harvested filters were washed 30 times, 200 ul/well, with distilled water followed by ethanol. Filter plates were dried, and 30 ul/well microscint-20 was added. Plates were read on a Packard Top Count NXT.
The IC50 values for compounds were determined using […] different [I], combined with 7 nM enzyme, 800 ng of the template-primer polyC/oligoG12 (1:5 molar ratio), and 0.7 uM of ^3H GTP containing 1 uCi. The observed fractional activity (fa=vi/vo) was used in the equation IC50=[I]/(1/fa-1) to determine a single point IC50 value. Typically, the single point IC50 values derived from [I] that produced fractional activities in the range of 0.1 to 0.8 relative to the uninhibited control were averaged to calculate the IC50 value for each compound.

T1 sequence (Q9WMX2 2420-2992): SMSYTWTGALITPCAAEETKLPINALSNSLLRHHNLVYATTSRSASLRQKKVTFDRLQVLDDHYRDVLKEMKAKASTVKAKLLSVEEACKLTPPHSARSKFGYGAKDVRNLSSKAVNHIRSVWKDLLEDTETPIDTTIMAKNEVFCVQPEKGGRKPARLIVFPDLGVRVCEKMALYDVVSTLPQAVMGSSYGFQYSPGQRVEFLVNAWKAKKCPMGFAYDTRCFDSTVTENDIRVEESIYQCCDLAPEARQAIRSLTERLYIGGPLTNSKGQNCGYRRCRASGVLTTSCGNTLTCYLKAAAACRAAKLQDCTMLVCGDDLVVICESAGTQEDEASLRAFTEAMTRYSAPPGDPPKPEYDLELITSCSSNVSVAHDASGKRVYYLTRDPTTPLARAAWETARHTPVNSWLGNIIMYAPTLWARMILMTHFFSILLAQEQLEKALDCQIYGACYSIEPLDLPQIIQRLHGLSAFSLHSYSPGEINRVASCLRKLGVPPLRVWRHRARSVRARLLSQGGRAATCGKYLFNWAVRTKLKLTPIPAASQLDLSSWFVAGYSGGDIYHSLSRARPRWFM

Q: For c1ccc(C(Oc2ccc(-c3nc4cc(-c5nnn[nH]5)ccc4n3C3CCCCC3)cc2)c2ccccc2)cc1 [Example 1, 2-[4-(Diphenylmethoxy)phenyl]-1-cyclohexyl-5-(1H-tetrazol-5-yl)-1H-benzimidazole], which IC50 is on record?
A: Its IC50 is 630 nM.

Q: How did the IC50 turn out when COc1ccc(-c2ccc(Cl)cc2)c(COc2ccc(-c3nc4cc(-c5nnn[nH]5)ccc4n3C3CCCCC3)cc2)c1 [Example 3, 2-{4-[(4′-Chloro-4-methoxy-1,1′-biphenyl-2-yl)methoxy]phenyl}-1-cyclohexyl-5-(1H-tetrazol-5-yl)-1H-benzimidazole] was run?
A: The IC50 was 140 nM.

Q: For O=C(O)c1ccc(-c2cncnc2)c(COc2ccc(-c3nc4cc(-c5nnn[nH]5)ccc4n3C3CCCCC3)cc2)c1 [Example 4, 3-[[4-[1-Cyclohexyl-5-(1H-tetrazol-5-yl)-1H-benzimidazol-2-yl]phenoxy]methyl]-4-(5-pyrimidinyl)benzoic acid], which IC50 is on record?
A: The IC50 was 630 nM.

Q: For COc1ccccc1-c1nc(COc2ccc(-c3nc4cc(-c5nnn[nH]5)ccc4n3C3CCCCC3)cc2)no1 [Example 5, 1-Cyclohexyl-2-[4-[5-(2-methoxyphenyl)-1,2,4-oxadiazol-3-ylmethoxy]phenyl]-5-[1H-tetrazol-5-yl]-1H-benzimidazole], which IC50 is on record?
A: Its IC50 is 360 nM.

Q: With O=c1[nH]c(-c2ccc3c(c2)nc(-c2ccc(OCc4ccccc4)cc2)n3C2CCCCC2)no1 [Example 10, 3-{2-[4-(Benzyloxy)phenyl]-1-cyclohexyl-1H-benzimidazol-5-yl}-1,2,4-oxadiazol-5(4H)-one] as the compound, how does the IC50 read?
A: Its IC50 is 850 nM.

Q: Which IC50 does the source give for COC(=O)c1ccc(C(=O)NS(=O)(=O)c2ccc3c(c2)nc(-c2ccc(OCc4ccccc4)cc2)n3C2CCCCC2)cc1 [Example 17, 4-[2-(4-Benzyloxyphenyl)-1-cyclohexyl-1H-benzoimidazole-5-sulfonylaminocarbonyl]-benzoic acid methyl ester] here?
A: The IC50 was 5210 nM.

Q: How did the IC50 turn out when O=C(O)c1ccc(C(=O)NS(=O)(=O)c2ccc3c(c2)nc(-c2ccc(OCc4ccccc4)cc2)n3C2CCCCC2)cc1 [Example 18, 4-[2-(4-Benzyloxyphenyl)-1-cyclohexyl-1H-benzimidazole-5-sulfonylaminocarbonyl]-benzoic acid] was run?
A: The IC50 was 1520 nM.

Q: O=C(O)CC(=O)NS(=O)(=O)c1ccc2c(c1)nc(-c1ccc(OCc3ccccc3)cc1)n2C1CCCCC1 [Example 20, 3-[2-(4-Benzyloxy-phenyl)-1-cyclohexyl-1H-benzoimidazole-5-sulfonylamino]-3-oxo-propionic acid] was tested. Which IC50 did it give?
A: The IC50 was 8200 nM.

Q: How did the IC50 turn out when O=C(O)C(=O)NS(=O)(=O)c1ccc2c(c1)nc(-c1ccc(OCc3ccccc3)cc1)n2C1CCCCC1 [Example 22, [2-(4-Benzyloxy-phenyl)-1-cyclohexyl-1H-benzoimidazole-5-sulfonylamino]-3-oxo-acetic acid] was run?
A: The IC50 was 8090 nM.

Q: O=C(O)c1ccc(-c2ccc(Cl)cc2)c(COc2ccc(-c3nc4cc(-c5nnn[nH]5)ccc4n3C3CCCCC3)cc2)c1 [Example 23] was tested. Which IC50 did it give?
A: The IC50 was 20 nM.

Q: O=C(O)c1ccc(-c2ccc(F)cc2)c(COc2ccc(-c3nc4cc(-c5nnn[nH]5)ccc4n3C3CCCCC3)cc2)c1 [Example 24] was tested. Which IC50 did it give?
A: The IC50 was 50 nM.

Q: Which IC50 does the source give for COc1ccc(-c2ccc(C(=O)O)cc2COc2ccc(-c3nc4cc(-c5nnn[nH]5)ccc4n3C3CCCCC3)cc2)cc1 [Example 25] here?
A: The IC50 was 40 nM.

Q: For CSc1ccc(-c2ccc(C(=O)O)cc2COc2ccc(-c3nc4cc(-c5nnn[nH]5)ccc4n3C3CCCCC3)cc2)cc1 [Example 26], which IC50 is on record?
A: The IC50 was 190 nM.

Q: Which IC50 does the source give for O=C(O)c1ccc(-c2cc(Cl)cc(Cl)c2)c(COc2ccc(-c3nc4cc(-c5nnn[nH]5)ccc4n3C3CCCCC3)cc2)c1 [Example 27] here?
A: The IC50 was 1010 nM.

Q: For O=C(O)c1ccc(-c2cccc3ccccc23)c(COc2ccc(-c3nc4cc(-c5nnn[nH]5)ccc4n3C3CCCCC3)cc2)c1 [Example 28], which IC50 is on record?
A: Its IC50 is 620 nM.

Q: O=C(O)c1ccc(-c2ccccc2-c2ccccc2)c(COc2ccc(-c3nc4cc(-c5nnn[nH]5)ccc4n3C3CCCCC3)cc2)c1 [Example 29] was tested. Which IC50 did it give?
A: Its IC50 is 250 nM.

Q: O=C(O)c1ccc(-c2ccc(F)c(Cl)c2)c(COc2ccc(-c3nc4cc(-c5nnn[nH]5)ccc4n3C3CCCCC3)cc2)c1 [Example 30] was tested. Which IC50 did it give?
A: The IC50 was 40 nM.
